The text below walks through data of patent publication US8895613B2 (priority 2013, dated 2014).

In the test the target is neuraminidase of Oseltamivir resistant virus of A/Vladivostok/16/09 (H1N1) influenza (Influenza A virus, UniProt C3W5S3).

For `CCC(CC)O[C@@H]1C=C(C(=O)O)C[C@H](NC(=N)N)[C@H]1NC(=O)CF` [1.1, (3R,4R,5S)-5-guanidino-4-fluoroacetamido-3-(pentan-3-yloxy)cyclohex-1-enecarboxylic acid], the “more active than A2 by factor” value stood at 207 and the “more active than A4 by factor” value is 250.

As to `CCC(CC)O[C@@H]1C=C(C(=O)O)C[C@H](NC(=N)N)[C@H]1NC(=O)C(F)F` [1.4, (3R,4R,5S)-5-guanidino-4-difluoroacetamido-3-(pentan-3-yloxy)cyclohex-1-enecarboxylic acid], the “more active than A2 by factor” value is recorded as 118 and the “more active than A4 by factor” value came out at 140.
